Test results published in US8697747B2, “Enhancing coagulation or reducing fibrinolysis” (THe UAB Research Foundation, priority 2009, dated 2014).

Tests used:
[1] = tested on: rat plasma; assay: Thrombelastography in rat plasma with or without tPA; format: biochemical
Experimental: Two sets of two Sprague Dawley outbred male rats were anesthetized with ketamine and xylazine and had blood drawn via cardiac puncture, pooled in two batches, and anticoagulated 1:9 with 3.2% sodium citrate. Two male New Zealand White rabbits were sedated with acepromazine and had blood collected via central ear artery and similarly anticoagulated. Blood was centrifuged at 3000×g for 15 min, and the plasma stored in two batches until analyzed. The final volume for thrombelastographic plasma sample mixtures was 359.6 μL. Sample composition consisted of 316 μL of plasma; 10 μL of tissue factor reagent (0.1% final concentration in dH2O; Instrumentation Laboratory, Lexington, Mass.); 10 μL of dH2O or tissue-type plasminogen activator (tPA, 580 U/μg, Genentech, Inc., San Francisco, Calif.) for a final activity of 2000 U/mL for rat plasma or 300 IU/mL for rabbit plasma; 3.6 μL of dimethyl sulfoxide (DMSO) or DMSO with CORM-2 (100 μM final concentration; Sigma-Aldrich, St. Louis, Mo.); and 20 μL of 200 mM CaCl2. The tPA activity for each species was determined with pilot data to obtain reproducible lysis within 15 min. There was no appreciable lysis in rat plasma at 100, 300, or 1000 U/mL tPA. Plasma sample mixtures were placed in a disposable cup in a computer-controlled THROMBELASTOGRAPH® hemostasis system (Model 5000, Haemoscope Corp., Niles, Ill.), with addition of CaCl2 as the last step to initiate clotting. In experiments without tPA, data were collected until clot strength (maximum amplitude) was stable. In experiments with tPA, data derived from the second rabbit plasma samples were collected for 60 min whereas data obtained with the second rat plasma samples were collected for 15 min. Thrombelastographic variables were determined at 39° C. as previously described in Examples 1, 2, and 4. Data were statistically compared with unpaired Student's t-test.

[2] = tested on: pooled normal plasma; assay: CLSM thrombelastography with tPA in undiluted and 30% diluted plasma; format: biochemical, human; settings: tPA 100 IU/mL, 100 μM CORM-2, median, n=8
Excerpt: Plasma and volume expanders. Pooled normal plasma (George King Bio-Medical, Overland Park, Kans.) anticoagulated with sodium citrate was utilized for experimentation. […] The volume expanders tested were 0.9% NaCl (Abbott Laboratories, North Chicago, Ill.; also designated as NS) and 6% hydroxylethyl starch (HES) in 0.9% NaCl (VOLUVEN®, average molecular weight 130 kDa, 0.4 degree of substitution, C2:C6 ratio of substitution 11.2; Fresenius Kabi, Bad Homburg, Germany; also referred to as VOL).
Plasma sample composition of experiments with tissue-type plasminogen activator addition. As in the first series of experiments, the final volume of plasma sample mixtures was 359.6 μL. Sample composition consisted of 316 μL of plasma/volume expander, 10 μL of tissue factor reagent (0.1% final concentration), 3.6 μL of DMSO without or with CORM-2 (100 μM final concentration), 10 μL of tissue-type plasminogen activator (tPA, 580 U/μg, Genentech, Inc., San Francisco, Calif.) diluted with 10 mM potassium phosphate buffer (pH 7.4) for a final activity of 100 IU/mL, and 20 μL of 200 mM CaCl2. As with tissue factor reagent, tPA stock was kept on ice prior to use and was remade every two hours. Plasma was diluted 0% or 30% with NS or VOL (n=8 per condition).
Clot Lifespan Model (CLSM) Analyses. Plasma sample mixtures were placed in a disposable cup in a computer-controlled THROMBELASTOGRAPH® hemostasis system (Model 5000, Haemoscope Corp., Niles, Ill.), with addition of CaCl2 as the last step to initiate clotting. In the first series of experiments, no tPA was added, so data were collected until clot strength (maximum amplitude) was stable. In the second series of experiments which in tPA was added, data were collected until clot lysis time occurred. […] Additional elastic modulus-based parameters were determined and the nomenclature used to describe these phenomena is as follows: Time to maximum rate of thrombus generation (TMRTG): This is the time interval (sec) observed prior to maximum speed of clot growth. Maximum rate of thrombus generation (MRTG): This is the maximum velocity of clot growth observed (dynes/cm^2/sec). Total Thrombus Generation (TTG): This is the total area under the velocity curve during clot growth (dynes/cm^2), representing the amount of clot strength generated during clot growth. Time to maximum rate of lysis (TMRL): This is the time interval (sec) measured from the time of maximum strength to the time when the velocity of clot disintegration is maximal. Maximum Rate of Lysis (MRL): This is the maximum velocity of clot disintegration observed (−dynes/cm^2/sec). Area of Clot Lysis (ACL): This is the total area under the velocity curve during clot disintegration (−dynes/cm^2), representing the amount of clot strength lost during clot disintegration. As this model involves complete fibrinolysis, TTG is equivalent to ACL, so ACL was not presented as it provides no additional information.
Statistical Analyses. Data obtained from pooled normal plasma not exposed to tPA were graphically represented with commercially available software (SigmaPlot 11.0, Systat Software, Inc., San Jose, Calif.), and kinetic modeling of thrombelastographic data performed with the same software. Analyses of the effects of hemodilution and CORM-2 on CLSM variables obtained from pooled normal plasma were conducted using Kruskal-Wallis one way analysis of variance with Student-Newman-Keuls post-hoc test. […] These analyses were conducted with the same commercially available software (SigmaPlot 11.0). A P value of <0.05 was considered significant.

[3] = 2000 U/ml tPA, 100 μM CORM-2, mean ± SD, n=4
[4] = 2000 U/ml tPA, 100 μM vs 0 μM CORM-2
[5] = no tPA, 100 μM CORM-2, mean ± SD, n=4

With `[C-]#[O+].[C-]#[O+].[C-]#[O+].[C-]#[O+].[C-]#[O+].[C-]#[O+].[Cl][Ru][Cl].[Cl][Ru][Cl]` [CORM-2, tricarbonyldichlororuthenium (II) dimer] the “ACL (area under the curve of lysis)” value [1, 3] was 0 ± 0 −dynes/cm^2, the “MRL (maximum rate of lysis)” value [1, 3] was 0.0 ± 0.0 −dynes/cm^2/sec and the “MRTG (maximum rate of thrombus generation)” value [1, 3] was 14.7 ± 0.6 dynes/cm^2/sec. For the same compound, the “TMRTG (time to maximum rate of thrombus generation)” value [1, 3] was 1.5 ± 0.1 min, the “TTG (total thrombus generation)” value [1, 3] was 230 ± 6 dynes/cm^2 and the “TMRL (time to maximum rate of lysis)” value ([1]; 2000 U/ml tPA, 100 μM CORM-2, n=4) was “No Lysis”. For the same compound, the “Percent Change of ACL” value [1, 4] was −100%, the “Percent Change of MRL” value [1, 4] was −100% and the “Percent Change of MRTG” value [1, 4] was 29%. For the same compound, the “Percent Change of TMRTG” value [1, 4] was 0%, the “Percent Change of TTG” value [1, 4] was 23% and the “MRTG (maximum rate of thrombus generation)” value [1, 5] was 14.7 ± 0.6 dynes/cm^2/sec. For the same compound, the “TMRTG (time to maximum rate of thrombus generation)” value [1, 5] was 1.5 ± 0.1 min, the “TTG (total thrombus generation)” value [1, 5] was 230 ± 6 dynes/cm^2 and the “Percent Change of MRTG” value ([1]; no tPA, 100 μM vs 0 μM CORM-2) was 29%. The “Percent Change of TMRTG” value ([1]; no tPA, 100 μM vs 0 μM CORM-2) was 0%, the “Percent Change of TTG” value ([1]; no tPA, 100 μM vs 0 μM CORM-2) was 23% and the “CGT (clot growth time)” value ([2]; plasma diluted 30% with NS) was 8.0 min. The “CLS (clot lifespan)” value ([2]; plasma diluted 30% with NS) was 38.7 min, the “CLT (clot lysis time)” value ([2]; plasma diluted 30% with NS) was 31.5 min and the “MRL (maximum rate of lysis)” value ([2]; plasma diluted 30% with NS) was −1.9 −dynes/cm^2/sec. The “MRTG (maximum rate of thrombus generation)” value ([2]; plasma diluted 30% with NS) was 11.2 dynes/cm^2/sec, the “TMRL (time to maximum rate of lysis)” value ([2]; plasma diluted 30% with NS) was 23.4 min and the “TMRTG (time to maximum rate of thrombus generation)” value ([2]; plasma diluted 30% with NS) was 2.00 min. For the same compound, the “TTG (total thrombus generation)” value ([2]; plasma diluted 30% with NS) was 206 dynes/cm^2, the “CGT (clot growth time)” value ([2]; plasma diluted 30% with VOL) was 2.2 min and the “CLS (clot lifespan)” value ([2]; plasma diluted 30% with VOL) was 10.0 min. The “CLT (clot lysis time)” value ([2]; plasma diluted 30% with VOL) was 8.0 min, the “MRL (maximum rate of lysis)” value ([2]; plasma diluted 30% with VOL) was −0.9 −dynes/cm^2/sec and the “MRTG (maximum rate of thrombus generation)” value ([2]; plasma diluted 30% with VOL) was 3.8 dynes/cm^2/sec. The “TMRL (time to maximum rate of lysis)” value ([2]; plasma diluted 30% with VOL) was 5.2 min, the “TMRTG (time to maximum rate of thrombus generation)” value ([2]; plasma diluted 30% with VOL) was 2.0 min and the “TTG (total thrombus generation)” value ([2]; plasma diluted 30% with VOL) was 62 dynes/cm^2. For the same compound, the “CGT (clot growth time)” value ([2]; undiluted plasma) was 8.1 min, the “CLS (clot lifespan)” value ([2]; undiluted plasma) was 31.6 min and the “CLT (clot lysis time)” value ([2]; undiluted plasma) was 24.3 min. For the same compound, the “MRL (maximum rate of lysis)” value ([2]; undiluted plasma) was −3.0 −dynes/cm^2/sec, the “MRTG (maximum rate of thrombus generation)” value ([2]; undiluted plasma) was 13.9 dynes/cm^2/sec and the “TMRL (time to maximum rate of lysis)” value ([2]; undiluted plasma) was 17.7 min. For the same compound, the “TMRTG (time to maximum rate of thrombus generation)” value ([2]; undiluted plasma) was 2.1 min and the “TTG (total thrombus generation)” value ([2]; undiluted plasma) was 285 dynes/cm^2.
